Tests used:
[1] = Glycemia in obese Zucker rats under fenofibrate, rosiglitazone or co-administration (Example 1); type: in vivo
Experimental: (§1) Male homozygous Zucker rats of 9 to 11 weeks of age and their lean controls were received from Iffa-Credo (France). They were put into individual cages in a temperature-, humidity- and light-controlled room (21-23° C., 12-12 h light-dark cycle). […] After acclimatization, they were randomized into groups of 10, based on body weight.
(§2) The experimental groups were: Group 1=lean rats, untreated; Group 2=obese rats, treated with the vehicle p.o., twice daily (at 8 a.m. and 8 p.m.); Group 3=obese rats, treated with Fenofibrate, 100 mg/kg, p.o., twice daily (at 8 a.m. and 8 p.m.); Group 4=obese rats, treated with Rosiglitazone. 0.3 mg/kg, p.o., twice daily (at 8 a.m. and 8 p.m.); Group 5=obese rats, treated with Rosiglitazone, 3.0 mg/kg., p.o., twice daily (at 8 a.m. and 8 p.m.); Group 6=obese rats, treated with Fenofibrate, 100 mg/kg and Rosiglitazone, 0.3 mg/kg, p.o., twice daily (at 8 a.m. and 8 p.m.); Group 7=obese rats, treated with Fenofibrate, 100 mg/kg and Rosiglitazone, 3.0 mg/kg, p.o., twice daily (at 8 a.m. and 8 p.m.).
(§3) The following parameters were monitored: glycemia (mg/dl) and body weight gain (g).

[2] = Body weight (gain) in obese Zucker rats under fenofibrate, rosiglitazone or co-administration (Example 1); type: in vivo
Experimental: as §1, §2, §3

[3] = fatty Zucker rats; cited from earlier work
[4] = Group 4: Rosiglitazone 0.3 mg/kg p.o. twice daily, after 41 days of treatment
[5] = Group 4: Rosiglitazone 0.3 mg/kg p.o. twice daily, after 69 days of treatment
[6] = Group 5: Rosiglitazone 3.0 mg/kg p.o. twice daily, after 41 days of treatment
[7] = Group 5: Rosiglitazone 3.0 mg/kg p.o. twice daily, after 69 days of treatment
[8] = Group 3: Fenofibrate 100 mg/kg p.o. twice daily, after 41 days of treatment
[9] = Group 3: Fenofibrate 100 mg/kg p.o. twice daily, after 69 days of treatment

CN(CCOc1ccc(CC2SC(=O)NC2=O)cc1)c1ccccn1 (stereo not drawn) [Rosiglitazone, rosiglitazone]
Glycemia [1, 4]: 274.6 ± 56.4 mg/dL
Glycemia [1, 5]: 446.0 ± 52.4 mg/dL
Glycemia [1, 6]: 119.6 ± 5.9 mg/dL
Glycemia [1, 7]: 151.4 ± 6.5 mg/dL
Body Weight [2, 4]: 538.5 ± 15.8 g
Body Weight [2, 5]: 615.2 ± 25.9 g
Body Weight [2, 6]: 601.4 ± 9.3 g
Body Weight [2, 7]: 721.0 ± 12.3 g

COc1ccc(CC2SC(=O)NC2=O)cc1C(=O)NCc1ccc(C(F)(F)F)cc1 (stereo not drawn) [KRP 297]
body weight gain (result in words) [3]: no change in body weight gain
serum insulin (result in words) [3]: affected serum triglycerides and insulin
serum triglycerides (result in words) [3]: affected serum triglycerides and insulin

CC(C)OC(=O)C(C)(C)Oc1ccc(C(=O)c2ccc(Cl)cc2)cc1 [Fenofibrate, fenofibrate]
Glycemia [1, 8]: 222.2 ± 53.1 mg/dL
Glycemia [1, 9]: 372.5 ± 78.5 mg/dL
Body Weight [2, 8]: 357.0 ± 7.9 g
Body Weight [2, 9]: 380.6 ± 13.7 g

Source: patent publication US20090099238A1, “USE OF A PPAR-ALPHA AGONIST TO TREAT PATIENTS SUFFERING FROM WEIGHT GAIN ASSOCIATED WITH A PPAR-GAMMA AGONIST TREATMENT” (priority 2003, published 2009)
